One assay addresses T1, MavL42-435-UbVME (Legionella pneumophila, UniProt Q5ZSJ1).
T1 construct: gene lpg2526

In another assay the target is T2, MavL42-435 (Legionella pneumophila, UniProt Q5ZSJ1).
T2 construct: gene lpg2526

Results on one compound are retold here after publication PMC10951314 (Nature Communications, 2024).

T2 sequence (Q5ZSJ1 42-435 limits assumed): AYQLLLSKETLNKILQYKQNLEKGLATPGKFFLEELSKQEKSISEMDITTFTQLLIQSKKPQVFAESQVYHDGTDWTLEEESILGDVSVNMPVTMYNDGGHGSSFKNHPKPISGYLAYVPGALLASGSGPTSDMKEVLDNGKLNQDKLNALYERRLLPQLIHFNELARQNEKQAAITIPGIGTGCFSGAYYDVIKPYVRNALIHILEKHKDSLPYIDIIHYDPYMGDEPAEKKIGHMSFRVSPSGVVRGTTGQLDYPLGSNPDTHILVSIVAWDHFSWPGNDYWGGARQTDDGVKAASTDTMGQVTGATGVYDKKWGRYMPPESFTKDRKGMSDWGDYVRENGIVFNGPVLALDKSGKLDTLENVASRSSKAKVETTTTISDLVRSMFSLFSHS

For the compound `Nc1ncnc2c1ncn2[C@@H]1O[C@H](COP(=O)(O)OP(=O)(O)OC[C@H]2OC(O)[C@H](O)[C@@H]2O)[C@@H](O)[C@H]1O` (some centres unmarked) [ADPR], the “X-ray crystal structure, 2.15 Å (crystal soak)” value on MavL42-435-UbVME is “we observed electron density for ADPR in one of the MavL-UbVME subunits”. For the same compound, the Kd at MavL42-435 amounted to 25.8 µM.
